Measured values taken from PMC6017957, “Synthesis, Anti-Proliferative Activity Evaluation and 3D-QSAR Study of Naphthoquinone Derivatives as Potential Anti-Colorectal Cancer Agents” (Molecules : A Journal of Synthetic Chemistry and Natural …, 2018).
Read-outs that look alike come from different tables or passages of the source.

Key:
[1] = test system: HT-29 colorectal cancer cells; assay: MTT anti-proliferative assay against HT-29 cells; assay type: cell-based, human; conditions: for IC50: Homo sapiens; for Cytotoxic activity category against HT-29: classified by HT-29 IC50
Experimental: (§1) The toxicity of the thirty-six compounds was determined in vitro by means of the MTT assay. Doxorubicin, a drug widely used to treat different types of cancer, was employed as a positive control, whereas the solvent (DMSO) was used as negative control.
(§2) Test compounds were dissolved in DMSO to obtain stock solutions that were maintained as small aliquots at −20 °C. At time of drug addition, an aliquot was thawed and diluted to obtain the desired final maximum test concentration of 100 μM, with complete medium. The final percentage of DMSO in the wells was less than 1% (v/v). […] Anti-Proliferative Assay
(§3) Doxorubicin, a drug widely used to treat different types of cancer, was used as a positive control. After 48 h, the medium was removed and cells were incubated with MTT solution (0.25 mg/mL). Four hours later, the medium was carefully aspired and formazan crystals were dissolved in DMSO (100 μL). The OD550 was measured using a plate reader (Multiskan Go, Thermo Scientific, Waltham, MA, USA). […] The selectivity index (SI), was calculated as a ratio of IC50Fibroblast/IC50HT-29cells.
(§4) The results are expressed as the mean of triplicate measurements in at least two independent experiments.

fibroblasts PCS-201-012 = assay: MTT cytotoxicity assay against normal dermal fibroblasts; assay type: cell-based; conditions: Fibroblast, value with 95% confidence interval, read-out: PCS-201-012 IC50 μM (95% CI)
Experimental: as §1, §2, §3, §4

[2] = HT-29, 48 h, MTT, 48 h, 0–100 µM, value with 95% confidence interval, read-out: HT-29 IC50 μM (95% CI)
[3] = HT-29, −logIC50 against HT-29, CoMFA training and test sets, read-out: pIC50 Experimental (converted)

melting point [°C]	IC50 [1, 2] [µM]	IC50 [1, 3] [µM]	Structure (SMILES)	Selectivity Index ([1]; SI = IC50Fibroblast/IC50HT-29cells)	Cytotoxic activity category against HT-29 [1]	IC50 (fibroblasts PCS-201-012) [µM]
64	9.16	9.16	CCCCc1cc2c(o1)-c1ccccc1C(=O)C2=O [Compound 4i, 2-Butylnaphtho[1,2-b]furan-4,5-dione]	0.42	highly active	3.86
200 to 207	40.2	40.2	CCc1cc2c([nH]1)C(=O)c1ccccc1C2=O [Compound 2c, 2-Ethyl-1H-benzo[f]indole-4,9-dione]		moderately active (moderately active (20 µM < IC50 ≤ 100 µM))	79.4
